Results reported in patent US11584747B2, “Substituted pyridopyrimidinonyl compounds useful as T cell activators” (BRISTOL-MYERS SQUIBB COMPANY, priority 2019, dated 2023).
Like-named read-outs stand apart in the source and are kept apart here.

Key:
human DGKα [1] = target: T1, human DGKα (Homo sapiens (Human), UniProt P23743); assay: DGKα LIPGLO assay (extruded liposome substrate, ADP-Glo luminescence); assay type: biochemical; conditions: liposome assay; read-out: DGK alpha LIPGLO IC50
human DGKζ = human DGKζ (Homo sapiens (Human), UniProt Q13574); assay: DGKζ LIPGLO assay (extruded liposome substrate, ADP-Glo luminescence); assay type: biochemical; conditions: liposome assay; read-out: DGK zeta LIPGLO IC50
human DGKα [2] = target: T1, human DGKα; assay: DGKα ADPGLO assay (detergent/lipid micelle substrate); assay type: biochemical; conditions: truncated DGK alpha; read-out: DGK alpha ADPGLO (Truncated) IC50
Protocol: DGK Alpha ADPGLO (Truncated) IC50 (uM)
The detergent/lipid micelle was prepared by combining 15 g phosphatidylserine (Avanti 840035P) and 1 g diacylglycerol (8008110) and dissolving into 150 mL chloroform in a 2 L round bottom flask. Chloroform was removed under high vacuum by rotary evaporation. […] The lipid/detergent solution was split into 5 mL aliquots and stored at −80° C.

[3] = system: human venous whole blood (IFN-γ); assay: Human whole blood IFN-γ assay; assay type: cell-based; conditions: whole blood, normalized to 3 μM reference compound as 100% activation, read-out: IFN-γ Whole Blood Normalized EC50
Protocol: Human venous whole blood (22.5 μL per well), obtained from healthy donors, was pre-treated with compounds for one hour at 37° C. in a humidified 95% air/5% CO2 incubator. The blood was stimulated with 2.5 μL anti-human CD3 and anti-CD28 mAb at a final concentration of 1 μg/mL each for 24 hours at 37° C. IFN-γ in the supernatants was measured using AlphLISA kit (Cat #AL217).

T1 sequence (P23743 whole entry, looked up): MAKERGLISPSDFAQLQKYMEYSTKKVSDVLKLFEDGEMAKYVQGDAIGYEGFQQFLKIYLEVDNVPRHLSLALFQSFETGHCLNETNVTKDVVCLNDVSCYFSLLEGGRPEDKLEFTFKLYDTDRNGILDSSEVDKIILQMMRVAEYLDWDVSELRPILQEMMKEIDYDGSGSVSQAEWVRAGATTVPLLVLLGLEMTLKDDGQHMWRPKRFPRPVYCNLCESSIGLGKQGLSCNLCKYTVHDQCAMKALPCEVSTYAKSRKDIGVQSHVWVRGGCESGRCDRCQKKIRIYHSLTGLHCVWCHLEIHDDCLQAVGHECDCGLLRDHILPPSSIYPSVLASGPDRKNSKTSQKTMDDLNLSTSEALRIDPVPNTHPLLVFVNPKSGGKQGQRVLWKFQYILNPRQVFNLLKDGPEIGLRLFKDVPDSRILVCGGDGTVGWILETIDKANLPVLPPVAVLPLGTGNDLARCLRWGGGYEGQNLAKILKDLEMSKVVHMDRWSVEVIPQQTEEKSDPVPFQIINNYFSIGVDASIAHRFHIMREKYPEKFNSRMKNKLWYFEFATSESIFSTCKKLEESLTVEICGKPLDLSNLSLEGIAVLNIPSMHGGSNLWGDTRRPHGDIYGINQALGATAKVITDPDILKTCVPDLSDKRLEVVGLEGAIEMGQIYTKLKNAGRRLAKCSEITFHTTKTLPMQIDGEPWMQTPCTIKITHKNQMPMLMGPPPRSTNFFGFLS
human DGKζ, sequence (Q13574 other isoform, or with tags, fused parts or gaps): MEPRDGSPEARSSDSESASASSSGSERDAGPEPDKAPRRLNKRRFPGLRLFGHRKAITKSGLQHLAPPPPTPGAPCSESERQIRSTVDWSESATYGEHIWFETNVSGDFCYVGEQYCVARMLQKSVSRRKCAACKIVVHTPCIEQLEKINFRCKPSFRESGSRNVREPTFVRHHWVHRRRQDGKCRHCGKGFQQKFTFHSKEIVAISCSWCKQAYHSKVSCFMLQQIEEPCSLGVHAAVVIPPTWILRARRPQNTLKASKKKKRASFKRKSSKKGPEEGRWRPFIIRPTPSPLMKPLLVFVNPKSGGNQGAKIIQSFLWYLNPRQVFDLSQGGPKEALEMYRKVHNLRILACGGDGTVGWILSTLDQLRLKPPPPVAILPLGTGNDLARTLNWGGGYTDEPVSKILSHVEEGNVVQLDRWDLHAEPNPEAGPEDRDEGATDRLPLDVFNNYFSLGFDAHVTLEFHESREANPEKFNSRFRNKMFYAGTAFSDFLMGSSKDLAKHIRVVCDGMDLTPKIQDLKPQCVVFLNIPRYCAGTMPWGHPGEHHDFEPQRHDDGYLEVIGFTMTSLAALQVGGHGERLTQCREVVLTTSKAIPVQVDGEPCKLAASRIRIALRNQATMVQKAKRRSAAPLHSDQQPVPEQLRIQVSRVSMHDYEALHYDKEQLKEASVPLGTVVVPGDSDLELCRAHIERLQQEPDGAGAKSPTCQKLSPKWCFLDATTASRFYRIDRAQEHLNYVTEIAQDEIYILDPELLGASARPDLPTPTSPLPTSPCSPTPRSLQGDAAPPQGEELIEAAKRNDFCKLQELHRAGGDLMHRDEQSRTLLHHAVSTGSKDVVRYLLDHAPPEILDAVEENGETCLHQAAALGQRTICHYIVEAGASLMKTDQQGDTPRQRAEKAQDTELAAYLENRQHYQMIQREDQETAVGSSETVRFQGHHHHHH

Row | SMILES | IC50 (human DGKα [1]) | IC50 (human DGKζ) | IC50 (human DGKα [2]) | EC50 [3] | EC50 ([3]; Homo sapiens)
1 | CC[C@@H]1CN(c2nc(=O)n(C)c3ccc(C#N)nc23)[C@@H](C)CN1C(c1ccc(F)cc1)c1cccc(C(F)(F)F)n1 (single isomer, unassigned) [Example 66] | 0.23 µM | 0.11 µM | 0.002 µM | 0.075 µM | –
2 | CCC(c1ccc(C(F)(F)F)cc1)N1C[C@H](C)N(c2nc(=O)n(C)c3ccc(C#N)nc23)C[C@H]1CC (single isomer, unassigned) [Example 90] | 0.12 µM | 0.59 µM | 0.14 µM | – | –
3 | CCC(c1ccc(OC(F)(F)F)cc1)N1C[C@H](CC)N(c2nc(=O)n(C)c3ccc(C#N)nc23)C[C@H]1CC (single isomer, unassigned) [Example 37] | 0.069 µM | 0.47 µM | 0.12 µM | 20 µM | –
4 | COC[C@@H]1CN(c2nc(=O)n(C)c3ccc(C#N)nc23)[C@@H](C)CN1C(c1ccc(F)cc1)c1ccc(C(F)(F)F)cn1 (single isomer, unassigned) [Example 178] | 0.29 µM | 0.13 µM | – | – | 0.091 µM
5 | CC[C@@H]1CN(c2nc(=O)n(C)c3ccc(C#N)nc23)[C@@H](C)CN1C(c1ccc(F)cc1)c1cnc(C2CC2)s1 (single isomer, unassigned) [Example 103] | 0.17 µM | 0.036 µM | – | 0.094 µM | –
6 | CC(c1ccc(OC(F)(F)F)cc1)N1C[C@H](C)N(c2nc(=O)n(C)c3ccc(C#N)nc23)C[C@H]1CO (single isomer, unassigned) [Example 184] | 2.66 µM | 45 µM | – | 20 µM | –
7 | CC(c1ccc2c(c1)OC(F)(F)O2)N1C[C@H](C)N(c2nc(=O)n(C)c3ccc(C#N)nc23)C[C@H]1C (single isomer, unassigned) [Example 167] | 17.8 µM | 2.38 µM | – | 3.85 µM | –
8 | C[C@@H]1CN(c2nc(=O)n(C)c3ccc(C#N)nc23)[C@@H](C)CN1C(c1ccc(F)cc1)c1csc(C(F)(F)F)n1 (single isomer, unassigned) [Example 171] | 1.56 µM | 0.56 µM | – | 0.22 µM | –
9 | C[C@@H]1CN(c2nc(=O)n(C)c3ccc(C#N)nc23)[C@@H](C)CN1C(c1ccc(F)cc1)c1nc(C2CC2)cs1 (single isomer, unassigned) [Example 159] | 0.094 µM | 0.038 µM | – | 0.25 µM | –
10 | CC(c1ccc(OC(F)(F)F)cc1)N1C[C@H](C)N(c2nc(=O)n(C)c3ccc(C#N)nc23)C[C@H]1C (single isomer, unassigned) [Example 132] | 0.7 µM | 5.95 µM | – | 2.65 µM | –
11 | CCC(c1ccc(OC(F)F)cc1)N1C[C@H](C)N(c2nc(=O)n(C)c3ccc(C#N)nc23)C[C@H]1CC (single isomer, unassigned) [Example 78] | 0.47 µM | 1.13 µM | – | – | 0.075 µM
12 | Cc1ccc(C(c2ccc(C)cc2)N2C[C@H](C)N(c3nc(=O)n(C)c4ccc(C#N)nc34)C[C@H]2C)cc1 [Example 125] | 0.74 µM | 0.99 µM | – | – | 0.5 µM
13 | CC(c1ccc(C2CC2)cc1)N1C[C@H](C)N(c2nc(=O)n(C)c3ccc(C#N)nc23)C[C@H]1C (single isomer, unassigned) [Example 4] | 1.33 µM | 0.76 µM | – | 0.97 µM | –
14 | CC(c1ccc(OC(F)(F)F)c(F)c1)N1C[C@H](C)N(c2nc(=O)n(C)c3ccc(C#N)nc23)C[C@H]1C (single isomer, unassigned) [Example 161] | 2.1 µM | 1.21 µM | – | 4.01 µM | –
15 | CC[C@@H]1CN(c2nc(=O)n(C)c3ccc(C#N)nc23)[C@@H](C)CN1C(c1ccc(F)cc1)c1cnc(C2CC2)s1 (single isomer, unassigned) [Example 104] | 0.47 µM | 0.11 µM | – | 0.21 µM | –
16 | C[C@@H]1CN(c2nc(=O)n(C)c3ccc(C#N)nc23)[C@@H](C)CN1C(c1ccc(OC(F)(F)F)cc1)c1cc(C2CC2)on1 (single isomer, unassigned) [Example 165] | 0.38 µM | 0.37 µM | – | 0.63 µM | –
